This is an account of results in patent US20250236595A1 (priority 2020, published 2025).

Data set [1] concerns PACAP. Description: Level of PACAP in serum of mice after intraperitoneal injection (ELISA kit). The data set is classed as in vivo, BALb/c mice. Conditions: SPAM1 10 and 100 μmol/kg intraperitoneal; blood 30 min after injection; vs normal saline control. The protocol: Thirty BALb/c mice (SPF grade, 8-10 weeks old, weighing 22-27 g, half female and half male) were randomly divided into following […], with 10 mice in each group: 1) SPAM1 low-dose group, intraperitoneal injection, 10 μmol/kg; 2) SPAM1 high-dose group, intraperitoneal injection, 100 μmol/kg; 3) normal control group, injected with normal saline intraperitoneally; 30 min after the injection, blood was collected from the orbit, and serum was assayed for PACAP using an ELISA kit.
In general terms: ELISA stands for enzyme-linked immunosorbent assay.

For data set [2], the system named is PAC1-R. Kind of data set: PAC1-R expression in Neuro2a cells, western blot with anti-PAC1-R (C-terminal) antibody. The following applies: SPAM1 at 1 μM, 10 μM and 100 μM, incubated 1 h. Format: cell-based, Mouse. The protocol:
Mouse nerve cells Neuro2a naturally expressing the PAC1-R were cultured until the fusion rate was more than 80%, added with SPAM1 at 1 μM, 10 μM and 100 μM, and disrupted after being incubated for 1 h. The supernatant of the whole cell lysate was subjected to SDS-PAGE and the western blot assay using the anti-PAC1-R (C-terminal) antibody.
(A western blot detects proteins with antibodies after separation by electrophoresis.)

Data set [3] deals with PAC1-R. Description: PAC1-R expression in SHSY-5Y cells, confocal immunofluorescence. Format: cell-based, Human. The following applies: 100 μM SPAM1, incubated 1 h. The protocol:
Human nerve cells SHSY-5Y naturally expressing the PAC1-R were cultured until the fusion rate was more than 80%, added with 100 μM SPAM1, and observed by confocal immunofluorescence after being incubated for 1 h.

The subject of data set [4] is corticosterone. Description: Level of corticosterone (COR) in serum of mice after intraperitoneal injection (ELISA). Format: in vivo, BALb/c mice. The following applies: SPAM1 10, 100 and 1000 μmol/kg intraperitoneal; blood 1 h after injection; vs normal saline control. The protocol: Forty BALb/c mice (SPF grade, 8-10 weeks old, weighing 22-27 g, half female and half male) were randomly divided into following […], with 10 mice in each group: 1) SPAM1 low-dose group, intraperitoneal injection, 10 μmol/kg; 2) SPAM1 medium-dose group, intraperitoneal injection, 100 μmol/kg; 3) SPAM1 high-dose group, intraperitoneal injection, 1000 μmol/kg; 4) normal control group, injected with normal saline intraperitoneally; 1 h after the injection, blood was collected from the orbit, and the level of COR in serum was measured by the solid phase sandwich enzyme-linked immunosorbent assay (ELISA).

Data set [5] has as its system D-galactose-induced aging model. Kind of data set: D-galactose-induced aging model, ovarian decline: estradiol and luteinizing hormone in serum (ELISA). The data set is classed as in vivo, BALB/c female mice. Conditions: female mice, D-galactose 200 mg/kg/d*42d; SPAM1 10 or 100 μmol/kg/d*28d i.p. from day 15; high dose more significant than low. As for the experimental part:
(§1) A D-galactose-induced aging model was used. Forty BALB/c female mice (SPF grade, 8-10 weeks old, weighing 22-27 g) were randomly divided into following 4 groups, with 10 mice in each group: 1) aging model group, injected with D-galactose (200 mg/kg/d*42d) subcutaneously at the neck or back; 2) SPAM1 low-dose treatment group, injected with D-galactose as in group 1), and injected with low-dose SPAM1 (10 μmol/kg/d*28d) intraperitoneally on day 15; 3) SPAM1 high-dose treatment group, injected with D-galactose as in group 1), and injected with high-dose SPAM1 (100 μmol/kg/d*28d) intraperitoneally on day 15; and 4) normal control group, injected with normal saline intraperitoneally instead of D-galactose and SPAM1; 24 h after the completion of all injections, blood was collected from the orbit, and the level of estradiol and luteinizing hormone in serum was assayed by the enzyme-linked immunosorbent assay (ELISA).

For data set [6] the test system is unchanged. Kind of data set: D-galactose-induced aging model, testicular decline: testosterone in serum (ELISA). Format: in vivo, BALB/c male mice. Conditions: male mice, D-galactose 200 mg/kg/d*42d; SPAM1 10 or 100 μmol/kg/d*28d i.p. from day 15; high dose more significant than low. As for the experimental part: as §1, with “male” for “female”, “after” for “after the completion of”, “testosterone” for “estradiol and luteinizing hormone”

Data set [7] relates to dexamethasone-induced thymus decline model. Description: Dexamethasone-induced thymus decline model, thymus index. Conditions: dexamethasone 25 mg/kg/d*2d i.p.; SPAM1 10 or 100 μmol/kg/d*2d i.p. at the same time. The data set is classed as in vivo, BALB/c mice. The protocol: A dexamethasone-induced thymus decline model was used. Forty BALB/c mice (SPF grade, half male and half female, 8-10 weeks old, weighing 22-27 g) were randomly divided into following 4 groups, with 10 mice in each group: 1) aging model group, injected with dexamethasone (25 mg/kg/d*2d) intraperitoneally; 2) SPAM1 low-dose treatment group, injected with dexamethasone as in group 1), and injected with SPAM1 at a low dose (10 μmol/kg/d*2d) intraperitoneally at the same time; 3) SPAM1 high-dose treatment group, injected with dexamethasone as in group 1), and injected with SPAM1 at a high dose (100 μmol/kg/d*2d) intraperitoneally at the same time; and 4) normal control group, injected with normal saline intraperitoneally instead of dexamethasone and SPAM1; 24 h after the completion of the final injection, the mice were weighed and sacrificed by cervical dislocation method, the thymus of the mice was weighed, and the thymus index was calculated according to: thymus index=thymus weight (mg)/body weight (g).

The subject of data set [8] is LPS-induced sepsis model. Description: LPS-induced sepsis model, survival. The data set is classed as in vivo, BALB/c mice. The following applies: SPAM1 10 or 100 μmol/kg i.p. 30 min before 15 mg/kg LPS at the tail vein; survival recorded for 8 days. As for the experimental part: An LPS-induced sepsis model was used. Forty BALB/c mice (SPF grade, half male and half female, 8-10 weeks old, weighing 22-27 g) were randomly divided into following 4 groups, with 10 mice in each group: 1) sepsis model group, injected with normal saline intraperitoneally, and 30 min later, injected with 15 mg/kg LPS at the tail vein; 2) SPAM1 low-dose treatment group, injected with low-dose SPAM1 (10 μmol/kg) intraperitoneally, and 30 min later, injected with 15 mg/kg LPS at the tail vein; 3) SPAM1 high-dose treatment group, injected with high-dose SPAM1 (100 μmol/kg) intraperitoneally, and 30 min later, injected with 15 mg/kg LPS at the tail vein; and 4) normal control group, injected with normal saline intraperitoneally, and 30 min later, injected with normal saline at the tail vein; the survival of mice was observed every 24 h, and the survival rate of each group was recorded for 8 days.

The conditions of data set [9]: cited from earlier work.

For `O=C(CCCc1nc2ccccc2c(=O)[nH]1)NCc1ccc(C(=O)O)cc1`, the “level of PACAP in serum” value in data set [1] was “effectively up-regulated the level of PACAP in serum and the up-regulation was concentration-dependent”. Further, the “expression of PAC1-R in nerve cells Neuro2a (western blot)” value in data set [2] was “up-regulated the expression of PAC1-R in nerve cells in a concentration-dependent manner”. Moreover, the “red fluorescent signal targeting PAC1-R in SHSY-5Y cells” value in data set [3] is “significantly up-regulated”. In addition, the “level of COR in serum” value in data set [4] is “increased the level of COR in a concentration-dependent manner”. In addition, in data set [5], the “level of estradiol in serum of aging mice” value is given as “effectively up-regulated” and the “level of luteinizing hormone in serum of aging mice” value is “effectively up-regulated”. The “level of testosterone in serum of aging mice” value in data set [6] was “effectively up-regulated”. Further, the “thymus index (thymus weight (mg)/body weight (g))” value in [7] was “effectively inhibited the dexamethasone-induced down-regulation of thymus index”. Besides, the “death rate / survival rate in LPS-induced sepsis” value in data set [8] is “effectively inhibited death caused by LPS-induced sepsis”.

For the molecule PACAP38, the in vivo half-life entry in data set [9] was “less than 2 min”.
